The results in this text go back to ChEMBL document CHEMBL1201862, “PubChem BioAssay data set” (2004).

Some test systems named below: 786-0; TK-10; IGROV-1; CAKI-1; HCT-15; SR; NCI-H23; MOLT-4; SF-295; U-251; OVCAR-5; HCC 2998; OVCAR-3; OVCAR-8; NCI-H226; SNB-19; K562; NCI-H460; NCI-H522; SNB-75.
Common to all, as to assay: NCI tumour cell line growth inhibition, 48 h

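Five compound concentrations were applied to cells in 96-well plates for 48 hours; endpoints were derived by simple linear interpolation of the resulting dose-response curve. Here, GI50 denotes the concentration required for 50% inhibition of growth.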 Activity calls are given as the source filed them. Cut-off read from the data, not from the text of the source: active = GI50 up to about 1.1 µM and inactive = higher.

Regarding `O=C1c2ccccc2-c2nc(-c3ccccc3)cc3c2c1nc1ccccc13`, the GI50 with 786-0 was 25.2 µM (inactive); in the experiment with TK-10, 15.3 µM (inactive); with IGROV-1, 4.12 µM (inactive); in the experiment on CAKI-1, 27.2 µM (inactive); in the experiment with HCT-15 it was 11.2 µM; in the experiment on SR it was 2.11 µM (inactive). Besides, the GI50 was 3.6 µM (inactive) in the experiment on NCI-H23; 6.52 µM (inactive) with MOLT-4; 12 µM (inactive) in the experiment with SF-295; 10.9 µM (inactive) with U-251; 29.4 µM (inactive) with OVCAR-5; 13.8 µM (inactive) in the experiment with HCC 2998. Moreover, the GI50 in the experiment on OVCAR-3 is 0.141 µM (active); with OVCAR-8, 16.4 µM (inactive); with NCI-H226, 16.6 µM (inactive); with SNB-19, 19.4 µM (inactive); in the experiment with K562, 1 µM (active).

On to `Clc1ccc(-c2nn3c(-c4ccncc4)nnc3s2)cc1`, for which the GI50 is 11 µM (inactive) with 786-0; > 100 µM (inactive) with TK-10; 64.4 µM (inactive) in the experiment on IGROV-1; > 100 µM (inactive) in the experiment on CAKI-1; 16.4 µM in the experiment with HCT-15; > 100 µM (inactive) with SR. In addition, the GI50 was > 100 µM (inactive) in the experiment on NCI-H23; > 100 µM (inactive) in the experiment on MOLT-4; 62.1 µM (inactive) with SF-295; 25.9 µM (inactive) in the experiment on U-251; > 100 µM (inactive) in the experiment with NCI-H460; > 100 µM (inactive) in the experiment with OVCAR-5. Also, the GI50 was > 100 µM (inactive) with OVCAR-3; > 100 µM (inactive) in the experiment on OVCAR-8; > 100 µM (inactive) in the experiment with NCI-H226; > 100 µM (inactive) in the experiment with NCI-H522; 59.2 µM (inactive) in the experiment with SNB-19; > 100 µM (inactive) with K562.

Take `CC(C)CNC(=O)Cn1c2c(c3ccccc31)CCCC2`: the GI50 in the experiment on 786-0 was 20.7 µM (inactive); in the experiment with TK-10, 35.8 µM (inactive); with IGROV-1, 14.9 µM (inactive); in the experiment on CAKI-1 it was 79.3 µM (inactive); in the experiment with HCT-15, over 100 µM; with SR, > 100 µM (inactive). The GI50 in the experiment on NCI-H23 is > 100 µM (inactive); in the experiment on MOLT-4, 0.743 µM (active); with SF-295, 35.8 µM (inactive); with NCI-H460, 64.1 µM (inactive); in the experiment with OVCAR-5, > 100 µM (inactive); in the experiment with HCC 2998, > 100 µM (inactive). The GI50 in the experiment on OVCAR-3 was 39 µM (inactive); in the experiment on OVCAR-8 it was 81.5 µM (inactive); with SNB-19, 85.3 µM (inactive); with K562 it was 76.9 µM (inactive).

`CSc1nc(-c2ccc(C)cc2)c(C#N)c(=O)[nH]1`: the GI50 is > 100 µM (inactive) in the experiment on 786-0; > 100 µM (inactive) with TK-10; > 100 µM (inactive) in the experiment on IGROV-1; > 100 µM (inactive) with CAKI-1; over 100 µM with HCT-15; > 100 µM (inactive) in the experiment with NCI-H23. The GI50 in the experiment on MOLT-4 is > 100 µM (inactive); with SF-295, > 100 µM (inactive); with U-251, > 100 µM (inactive); in the experiment on NCI-H460, > 100 µM (inactive); with SNB-75, 43.7 µM (inactive); in the experiment with OVCAR-5, > 100 µM (inactive). For the same compound, the GI50 in the experiment with HCC 2998, with OVCAR-3, in the experiment on OVCAR-8, with NCI-H226, in the experiment on NCI-H522 and in the experiment with SNB-19 was > 100 µM (inactive) throughout. For the same compound, in the experiment on K562, the GI50 was > 100 µM (inactive).

For the compound `Cn1cc(-c2ccc3c4ccccc4n(C)c3c2)c2ccccc21`, the GI50 with 786-0 was > 100 µM (inactive); in the experiment on TK-10, > 100 µM (inactive); in the experiment on IGROV-1, > 100 µM (inactive); in the experiment on CAKI-1, > 100 µM (inactive); in the experiment with HCT-15, 36.6 µM; with NCI-H23, > 100 µM (inactive). Further, the GI50 with MOLT-4 is > 100 µM (inactive); in the experiment on SF-295 it was 94.4 µM (inactive); in the experiment with U-251, > 100 µM (inactive); with NCI-H460, > 100 µM (inactive); in the experiment with SNB-75, > 100 µM (inactive); with OVCAR-5, > 100 µM (inactive). Also, the GI50 with HCC 2998, in the experiment on OVCAR-3, with OVCAR-8, in the experiment with NCI-H226, in the experiment on NCI-H522 and in the experiment with SNB-19 was > 100 µM (inactive) throughout. In the experiment with K562, the GI50 was 67.9 µM (inactive).

With `O=C(N/C(=C\c1ccccc1)C1Nc2ccccc2C(=O)O1)c1ccccc1` (stereo unspecified), the GI50 was 24.5 µM (inactive) with 786-0; > 100 µM (inactive) in the experiment on TK-10; 34.3 µM (inactive) in the experiment with IGROV-1; > 100 µM (inactive) with CAKI-1; 31.8 µM with HCT-15; 37.5 µM (inactive) with NCI-H23. In addition, the GI50 in the experiment on MOLT-4 was 18.7 µM (inactive); with SF-295 it was 37 µM (inactive); in the experiment on U-251 it was 22.4 µM (inactive); in the experiment with NCI-H460 it was 16.6 µM (inactive); in the experiment on SNB-75, 38.8 µM (inactive); in the experiment with OVCAR-5, > 100 µM (inactive). For the same compound, the GI50 in the experiment with HCC 2998 is 19.8 µM (inactive); in the experiment on OVCAR-3, 27.3 µM (inactive); with OVCAR-8, 21.4 µM (inactive); in the experiment on NCI-H226 it was 25.6 µM (inactive); in the experiment on NCI-H522, 16.3 µM (inactive); with SNB-19 it was 33.8 µM (inactive). Further, the GI50 in the experiment with K562 is 21.5 µM (inactive).

Turning to `COc1ccccc1C(=O)Nc1ccc(Cl)c(C(=O)OC(C)C)c1`, the GI50 with 786-0 was 38 µM (inactive); in the experiment with TK-10, > 80 µM (inactive); with IGROV-1, > 66.8 µM (inactive); in the experiment on CAKI-1, > 67 µM (inactive); in the experiment on HCT-15, 32.1 µM; in the experiment on NCI-H23, 13.5 µM (inactive). Further, the GI50 was > 45.8 µM (inactive) with MOLT-4; 36.6 µM (inactive) in the experiment on SF-295; 43 µM (inactive) with U-251; 37.4 µM (inactive) with NCI-H460; 35.4 µM (inactive) with SNB-75; > 50 µM (inactive) with OVCAR-5. Moreover, the GI50 was > 63.7 µM (inactive) in the experiment on HCC 2998; > 46.1 µM (inactive) with OVCAR-3; > 63 µM (inactive) in the experiment on OVCAR-8; 47.4 µM (inactive) with NCI-H226; 33.2 µM (inactive) in the experiment on NCI-H522; > 65.3 µM (inactive) in the experiment with SNB-19. Moreover, in the experiment on K562, the GI50 is 28.4 µM (inactive).

As for `Cc1cccc(NC(=O)/C=C/c2ccc(N(CCC#N)CCC#N)cc2C)c1`, the GI50 with 786-0 is > 100 µM (inactive); in the experiment with TK-10 it was > 100 µM (inactive); in the experiment on IGROV-1 it was > 100 µM (inactive); with CAKI-1 it was > 100 µM (inactive); in the experiment with HCT-15 it was 29 µM; in the experiment with NCI-H23, > 100 µM (inactive). Also, the GI50 is > 100 µM (inactive) in the experiment on MOLT-4; > 100 µM (inactive) in the experiment with SF-295; > 100 µM (inactive) with U-251; > 100 µM (inactive) with NCI-H460; 54.5 µM (inactive) in the experiment with SNB-75; > 100 µM (inactive) with OVCAR-5. Moreover, the GI50 with HCC 2998, in the experiment with OVCAR-3, in the experiment on OVCAR-8, in the experiment with NCI-H226, in the experiment with NCI-H522 and with SNB-19 was > 100 µM (inactive) each time. Besides, the GI50 in the experiment on K562 is 16.8 µM (inactive).
